Measured values from patent US20260027116A1, “Methods of Treating Chronic Graft-Versus-Host Disease Following Allogeneic Hematopoietic Stem Cell Transplantation” (Kadmon Corporation, LLC, priority 2022, published 2026).

System: patients with cGVHD

CC(C)NC(=O)COc1cccc(-c2nc(Nc3ccc4[nH]ncc4c3)c3ccccc3n2)c1 [Belumosudil, 2-{3-[4-(1H-indazol-5-ylamino)-2-quinazolinyl]phenoxy}-N-(propan-2-yl) acetamide]
Rash erythematous: # Events (Cohort 1 200 mg QD): 0
Rash erythematous: Affected/At Risk (%) (Cohort 1 200 mg QD): 0/17 (0%)
Rash maculo-papular: # Events (Cohort 1 200 mg QD): 2
Rash maculo-papular: Affected/At Risk (%) (Cohort 1 200 mg QD): 2/17 (11.76%)
Rash pustular: # Events (Cohort 1 200 mg QD): 0
Rash pustular: Affected/At Risk (%) (Cohort 1 200 mg QD): 0/17 (0%)
Rash: # Events (Cohort 1 200 mg QD): 2
Rash: Affected/At Risk (%) (Cohort 1 200 mg QD): 1/17 (5.88%)
Red blood cells urine positive: # Events (Cohort 1 200 mg QD): 0
Red blood cells urine positive: Affected/At Risk (%) (Cohort 1 200 mg QD): 0/17 (0%)
Renal failure: # Events (Cohort 1 200 mg QD): 0
Renal failure: Affected/At Risk (%) (Cohort 1 200 mg QD): 0/17 (0%)
Respiratory syncytial virus infection: # Events (Cohort 1 200 mg QD): 0
Respiratory syncytial virus infection: Affected/At Risk (%) (Cohort 1 200 mg QD): 0/17 (0%)
Respiratory tract infection fungal: # Events (Cohort 1 200 mg QD): 1
Respiratory tract infection fungal: Affected/At Risk (%) (Cohort 1 200 mg QD): 1/17 (5.88%)
Respiratory tract infection: # Events (Cohort 1 200 mg QD): 1
Respiratory tract infection: Affected/At Risk (%) (Cohort 1 200 mg QD): 1/17 (5.88%)
Restless legs syndrome: # Events (Cohort 1 200 mg QD): 0
Restless legs syndrome: Affected/At Risk (%) (Cohort 1 200 mg QD): 0/17 (0%)
Rosacea: # Events (Cohort 1 200 mg QD): 0
Rosacea: Affected/At Risk (%) (Cohort 1 200 mg QD): 0/17 (0%)
SAE, No. (%) (Cohort 1 200 mg QD): 5 (29)
Sinus pain: # Events (Cohort 1 200 mg QD): 2
Sinus pain: Affected/At Risk (%) (Cohort 1 200 mg QD): 2/17 (11.76%)
Sinusitis: # Events (Cohort 1 200 mg QD): 1
Sinusitis: Affected/At Risk (%) (Cohort 1 200 mg QD): 1/17 (5.88%)
Skin abrasion: # Events (Cohort 1 200 mg QD): 0
Skin abrasion: Affected/At Risk (%) (Cohort 1 200 mg QD): 0/17 (0%)
Skin lesion: # Events (Cohort 1 200 mg QD): 0
Skin lesion: Affected/At Risk (%) (Cohort 1 200 mg QD): 0/17 (0%)
Skin papilloma: # Events (Cohort 1 200 mg QD): 1
Skin papilloma: Affected/At Risk (%) (Cohort 1 200 mg QD): 1/17 (5.88%)
Spinal compression fracture: # Events (Cohort 1 200 mg QD): 1
Spinal compression fracture: Affected/At Risk (%) (Cohort 1 200 mg QD): 1/17 (5.88%)
Squamous cell carcinoma of skin: # Events (Cohort 1 200 mg QD): 0
Squamous cell carcinoma of skin: Affected/At Risk (%) (Cohort 1 200 mg QD): 0/17 (0%)
Stomatitis: # Events (Cohort 1 200 mg QD): 2
Stomatitis: Affected/At Risk (%) (Cohort 1 200 mg QD): 1/17 (5.88%)
Superior vena cava syndrome: # Events (Cohort 1 200 mg QD): 0
Superior vena cava syndrome: Affected/At Risk (%) (Cohort 1 200 mg QD): 0/17 (0%)
TEAE, participants (%) (Cohort 1 200 mg QD): 17 (100%) participants
TESAE, participants (%) (Cohort 1 200 mg QD): 5 (29%) participants
Tachycardia: # Events (Cohort 1 200 mg QD): 0
Tachycardia: Affected/At Risk (%) (Cohort 1 200 mg QD): 0/17 (0%)
Tendonitis: # Events (Cohort 1 200 mg QD): 0
Tendonitis: Affected/At Risk (%) (Cohort 1 200 mg QD): 0/17 (0%)
Testicular pain: # Events (Cohort 1 200 mg QD): 1
Testicular pain: Affected/At Risk (%) (Cohort 1 200 mg QD): 1/17 (5.88%)
Testicular swelling: # Events (Cohort 1 200 mg QD): 1
Testicular swelling: Affected/At Risk (%) (Cohort 1 200 mg QD): 1/17 (5.88%)
Thoracic spinal stenosis: # Events (Cohort 1 200 mg QD): 1
Thoracic spinal stenosis: Affected/At Risk (%) (Cohort 1 200 mg QD): 1/17 (5.88%)
Thrombocytopenia: # Events (Cohort 1 200 mg QD): 0
Thrombocytopenia: Affected/At Risk (%) (Cohort 1 200 mg QD): 0/17 (0%)
Thrombocytosis: # Events (Cohort 1 200 mg QD): 1
Thrombocytosis: Affected/At Risk (%) (Cohort 1 200 mg QD): 1/17 (5.88%)
Tinea pedis: # Events (Cohort 1 200 mg QD): 0
Tinea pedis: Affected/At Risk (%) (Cohort 1 200 mg QD): 0/17 (0%)
Tooth fracture: # Events (Cohort 1 200 mg QD): 0
Tooth fracture: Affected/At Risk (%) (Cohort 1 200 mg QD): 0/17 (0%)
Total other adverse events: Affected/At Risk (%) (Cohort 1 200 mg QD): 17/17 (100%)
Transfusion reaction: # Events (Cohort 1 200 mg QD): 1
Transfusion reaction: Affected/At Risk (%) (Cohort 1 200 mg QD): 1/17 (5.88%)
Tremor: # Events (Cohort 1 200 mg QD): 3
Tremor: Affected/At Risk (%) (Cohort 1 200 mg QD): 2/17 (11.76%)
Type 2 diabetes mellitus: # Events (Cohort 1 200 mg QD): 1
Type 2 diabetes mellitus: Affected/At Risk (%) (Cohort 1 200 mg QD): 1/17 (5.88%)
Ulcerative keratitis: # Events (Cohort 1 200 mg QD): 0
Ulcerative keratitis: Affected/At Risk (%) (Cohort 1 200 mg QD): 0/17 (0%)
Upper respiratory tract infection: # Events (Cohort 1 200 mg QD): 16
Upper respiratory tract infection: Affected/At Risk (%) (Cohort 1 200 mg QD): 9/17 (52.94%)
Upper-airway cough syndrome: # Events (Cohort 1 200 mg QD): 0
Upper-airway cough syndrome: Affected/At Risk (%) (Cohort 1 200 mg QD): 0/17 (0%)
Urinary retention: # Events (Cohort 1 200 mg QD): 0
Urinary retention: Affected/At Risk (%) (Cohort 1 200 mg QD): 0/17 (0%)
Urinary tract infection: # Events (Cohort 1 200 mg QD): 0
Urinary tract infection: Affected/At Risk (%) (Cohort 1 200 mg QD): 0/17 (0%)
Urinary tract pain: # Events (Cohort 1 200 mg QD): 0
Urinary tract pain: Affected/At Risk (%) (Cohort 1 200 mg QD): 0/17 (0%)
Urine output decreased: # Events (Cohort 1 200 mg QD): 1
Urine output decreased: Affected/At Risk (%) (Cohort 1 200 mg QD): 1/17 (5.88%)
Vascular access complication: # Events (Cohort 1 200 mg QD): 0
Vascular access complication: Affected/At Risk (%) (Cohort 1 200 mg QD): 0/17 (0%)
Vertigo: # Events (Cohort 1 200 mg QD): 2
Vertigo: Affected/At Risk (%) (Cohort 1 200 mg QD): 2/17 (11.76%)
Vision blurred: # Events (Cohort 1 200 mg QD): 0
Vision blurred: Affected/At Risk (%) (Cohort 1 200 mg QD): 0/17 (0%)
Vomiting: # Events (Cohort 1 200 mg QD): 4
Vomiting: Affected/At Risk (%) (Cohort 1 200 mg QD): 2/17 (11.76%)
Weight decreased: # Events (Cohort 1 200 mg QD): 1
Weight decreased: Affected/At Risk (%) (Cohort 1 200 mg QD): 1/17 (5.88%)
Weight increased: # Events (Cohort 1 200 mg QD): 9
Weight increased: Affected/At Risk (%) (Cohort 1 200 mg QD): 3/17 (17.65%)
White blood cell count decreased: # Events (Cohort 1 200 mg QD): 1
White blood cell count decreased: Affected/At Risk (%) (Cohort 1 200 mg QD): 1/17 (5.88%)
Abdominal distension: # Events (Cohort 2 200 mg BID): 0
Abdominal distension: Affected/At Risk (%) (Cohort 2 200 mg BID): 0/16 (0%)
Abdominal pain upper: # Events (Cohort 2 200 mg BID): 1
Abdominal pain upper: Affected/At Risk (%) (Cohort 2 200 mg BID): 1/16 (6.25%)
Abdominal pain: # Events (Cohort 2 200 mg BID): 4
Abdominal pain: Affected/At Risk (%) (Cohort 2 200 mg BID): 2/16 (12.5%)
Actinic keratosis: # Events (Cohort 2 200 mg BID): 1
Actinic keratosis: Affected/At Risk (%) (Cohort 2 200 mg BID): 1/16 (6.25%)
Acute kidney injury: # Events (Cohort 2 200 mg BID): 2
Acute kidney injury: Affected/At Risk (%) (Cohort 2 200 mg BID): 2/16 (12.5%)
Acute respiratory distress syndrome: # Events (Cohort 2 200 mg BID): 0
Acute respiratory distress syndrome: Affected/At Risk (%) (Cohort 2 200 mg BID): 0/16 (0%)
Adrenal insufficiency: # Events (Cohort 2 200 mg BID): 0
Adrenal insufficiency: Affected/At Risk (%) (Cohort 2 200 mg BID): 0/16 (0%)
Alanine aminotransferase increased: # Events (Cohort 2 200 mg BID): 4
Alanine aminotransferase increased: Affected/At Risk (%) (Cohort 2 200 mg BID): 3/16 (18.75%)
All grade ALT/AST increased, No. (%) (Cohort 2 200 mg BID): 5 (31)
All grade Cough, No. (%) (Cohort 2 200 mg BID): 4 (25)
All grade Diarrhea, No. (%) (Cohort 2 200 mg BID): 5 (31)
All grade Dyspnea, No. (%) (Cohort 2 200 mg BID): 6 (38)
All grade Fatigue, No. (%) (Cohort 2 200 mg BID): 3 (19)
All grade Headache, No. (%) (Cohort 2 200 mg BID): 3 (19)
All grade Hypertension, No. (%) (Cohort 2 200 mg BID): 2 (13)
All grade Nausea, No. (%) (Cohort 2 200 mg BID): 4 (25)
All grade Peripheral edema, No. (%) (Cohort 2 200 mg BID): 4 (25)
All grade URI, No. (%) (Cohort 2 200 mg BID): 9 (56)
All-Cause Mortality, % (Cohort 2 200 mg BID): (18.75%)
All-Cause Mortality, Affected/At Risk (Cohort 2 200 mg BID): 3/16
Anaemia: # Events (Cohort 2 200 mg BID): 8
Anaemia: Affected/At Risk (%) (Cohort 2 200 mg BID): 4/16 (25%)
Anal incontinence: # Events (Cohort 2 200 mg BID): 0
Anal incontinence: Affected/At Risk (%) (Cohort 2 200 mg BID): 0/16 (0%)
Anxiety: # Events (Cohort 2 200 mg BID): 3
Anxiety: Affected/At Risk (%) (Cohort 2 200 mg BID): 2/16 (12.5%)
Any AE, No. (%) (Cohort 2 200 mg BID): 16 (100)
Arthralgia: # Events (Cohort 2 200 mg BID): 1
Arthralgia: Affected/At Risk (%) (Cohort 2 200 mg BID): 1/16 (6.25%)
Aspartate aminotransferase increased: # Events (Cohort 2 200 mg BID): 2
Aspartate aminotransferase increased: Affected/At Risk (%) (Cohort 2 200 mg BID): 2/16 (12.5%)
Asthenia: # Events (Cohort 2 200 mg BID): 1
Asthenia: Affected/At Risk (%) (Cohort 2 200 mg BID): 1/16 (6.25%)
Atelectasis: # Events (Cohort 2 200 mg BID): 0
Atelectasis: Affected/At Risk (%) (Cohort 2 200 mg BID): 0/16 (0%)
Back pain: # Events (Cohort 2 200 mg BID): 2
Back pain: Affected/At Risk (%) (Cohort 2 200 mg BID): 2/16 (12.5%)
Balance disorder: # Events (Cohort 2 200 mg BID): 1
Balance disorder: Affected/At Risk (%) (Cohort 2 200 mg BID): 1/16 (6.25%)
Basal cell carcinoma: # Events (Cohort 2 200 mg BID): 1
Basal cell carcinoma: Affected/At Risk (%) (Cohort 2 200 mg BID): 1/16 (6.25%)
Benign prostatic hyperplasia: # Events (Cohort 2 200 mg BID): 0
Benign prostatic hyperplasia: Affected/At Risk (%) (Cohort 2 200 mg BID): 0/16 (0%)
Blepharitis: # Events (Cohort 2 200 mg BID): 0
Blepharitis: Affected/At Risk (%) (Cohort 2 200 mg BID): 0/16 (0%)
Blister: # Events (Cohort 2 200 mg BID): 3
Blister: Affected/At Risk (%) (Cohort 2 200 mg BID): 2/16 (12.5%)
Blood alkaline phosphatase increased: # Events (Cohort 2 200 mg BID): 1
Blood alkaline phosphatase increased: Affected/At Risk (%) (Cohort 2 200 mg BID): 1/16 (6.25%)
Blood chloride decreased: # Events (Cohort 2 200 mg BID): 1
Blood chloride decreased: Affected/At Risk (%) (Cohort 2 200 mg BID): 1/16 (6.25%)
Blood cholesterol increased: # Events (Cohort 2 200 mg BID): 0
Blood cholesterol increased: Affected/At Risk (%) (Cohort 2 200 mg BID): 0/16 (0%)
Blood creatine increased: # Events (Cohort 2 200 mg BID): 1
Blood creatine increased: Affected/At Risk (%) (Cohort 2 200 mg BID): 1/16 (6.25%)
Blood creatine phosphokinase increased: # Events (Cohort 2 200 mg BID): 0
Blood creatine phosphokinase increased: Affected/At Risk (%) (Cohort 2 200 mg BID): 0/16 (0%)
Blood creatinine increased: # Events (Cohort 2 200 mg BID): 1
Blood creatinine increased: Affected/At Risk (%) (Cohort 2 200 mg BID): 1/16 (6.25%)
Blood loss anaemia: # Events (Cohort 2 200 mg BID): 0
Blood loss anaemia: Affected/At Risk (%) (Cohort 2 200 mg BID): 0/16 (0%)
Bronchial secretion retention: # Events (Cohort 2 200 mg BID): 1
Bronchial secretion retention: Affected/At Risk (%) (Cohort 2 200 mg BID): 1/16 (6.25%)
Bronchitis: # Events (Cohort 2 200 mg BID): 0
Bronchitis: Affected/At Risk (%) (Cohort 2 200 mg BID): 0/16 (0%)
